Results: patent US10712352B2, “Methods and devices for assessing in vivo toxic levels of bilirubin and diagnosing increased risk of bilirubin neurotoxicity” (NEOMETRIX DX, priority 2018, dated 2020)

Legend:
human albumin = human albumin (Homo sapiens, UniProt P02768); assay: Bilirubin binding before and after adding sulfisoxazole to a bilirubin/human albumin sample
Text: The clinically relevant quantification of bilirubin binding are the mass action variables above (BTotal, BFree, BTotal_2, BFree_2, BTmax, and KA) constitute a Bilirubin Binding Panel (BBP). Optionally, BTmax and KA can be used to determine whether a newborn binds bilirubin normally.
Measuring Total and Unbound Bilirubin (BTotal and BFree): The peroxidase test (see, e.g., Jacobsen J, Wennberg R P. Determination of unbound bilirubin in the serum of newborns. Clin Chem 1974; 20:783-789) measures both BTotal and BFree. This test is used clinically in Japan. In alternative embodiments, novel modifications of methods as provided herein measure BFree at two horseradish peroxidase levels to accurately determine BFree and measure BTotal and BFree before and after bilirubin enrichment of a plasma or other blood sample to provide BTmax and KA to complete the Bilirubin Binding Panel (BBP) described herein. […] The peroxidase test is based on the horse radish peroxidase (HRP) catalyzed oxidation of bilirubin by peroxide. Bilirubin absorbs light maximally at 440 nm when no albumin is present and at 460 nm when bound to albumin. Bilirubin bound to albumin is protected from oxidation and only BFree is oxidized. The light absorbance at 440 nm (no albumin) or 460 nm (albumin present) decreases as bilirubin is oxidized, and the reaction rate constant, Kp, can be determined using known bilirubin and HRP concentrations in solutions without albumin present (i.e. all the bilirubin is unbound or “free”) as shown in the equivalent velocity equations below: […]
BTotal is calculated from the absorbance prior to adding HRP and H2O2 and BFree from the change in absorbance following addition of HRP/H2O2 as further described below. […]
BTotal is calculated by dividing the initial absorbance by the known extinction coefficient (0.827/cm light path length for BTotal in […]) and BFree is calculated from the change in absorbance at 460 nm after adding HRP/H2O2. […]

[1] = tested on: plasma bilirubin binding sites (e.g. albumin); assay: Bilirubin binding panel (peroxidase test, before and after bilirubin enrichment) in plasma of 31 newborns <28 weeks gestation; set-up: species or system human
Text: [formula] can be readily solved by for BTmax and KA by measuring BTotal and BFree before and after enrichment of the sample with bilirubin to provide BTotal, BFree, and BTotal_2, BFree_2. These provide two equations with two unknowns (BTmax and KA), that can be solved for BTmax as shown below:
(§1) This test is used clinically in Japan.
(§2) BFree is obtained by measuring BFss at the additional HRP concentration and using […]

human defatted albumin = human defatted albumin (Homo sapiens, UniProt P02768); assay: Bilirubin binding isotherm in artificial serum containing human defatted albumin (peroxidase test); details: albumin 3.0 g/dL
Chain of human defatted albumin (P02768 25-609): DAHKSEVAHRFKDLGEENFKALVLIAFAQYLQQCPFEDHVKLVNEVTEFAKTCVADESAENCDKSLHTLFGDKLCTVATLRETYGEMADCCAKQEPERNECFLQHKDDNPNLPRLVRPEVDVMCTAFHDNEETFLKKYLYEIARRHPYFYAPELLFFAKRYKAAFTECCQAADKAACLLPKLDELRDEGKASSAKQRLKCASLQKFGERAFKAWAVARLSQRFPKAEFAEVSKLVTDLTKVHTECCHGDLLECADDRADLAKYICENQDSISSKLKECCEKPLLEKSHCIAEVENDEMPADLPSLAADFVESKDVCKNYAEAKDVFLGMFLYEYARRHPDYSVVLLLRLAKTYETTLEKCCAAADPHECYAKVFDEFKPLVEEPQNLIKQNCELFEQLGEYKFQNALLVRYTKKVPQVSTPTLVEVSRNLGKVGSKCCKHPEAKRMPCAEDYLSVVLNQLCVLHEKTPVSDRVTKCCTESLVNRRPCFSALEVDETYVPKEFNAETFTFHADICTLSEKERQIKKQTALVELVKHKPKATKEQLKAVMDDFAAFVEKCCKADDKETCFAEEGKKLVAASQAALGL
Experimental: FIG. 5 illustrates the change in BFree (black dots) as BTotal increases. The negative intercept of 1/BFree versus 1/BTotal, i.e. KA, is […] and the negative slope/intercept, i.e. BTmax, is 37.5 mg/dL. The BTmax and KA in Table 3 are calculated as described above using the lowest BTotal (8.3 mg/dL) and BFree (0.51 μg/dL) paired with each of the other five measures of BTotal and BFree. The mean BTmax and KA of all 15 possible pairings in TABLE 4 are 39.1 mg/dL and 0.56 dL/μg, respectively.
Non-linear regression analysis of the molar ratios versus the BFree from TABLE 3 were used to determine the best fit K1 (0.93 dL/μg) and K2 (0.04 dL/μg) using the stoichiometric equation
as §1, §2

Chain of human albumin (P02768 25-609): as above

In the case of `C=CC1=C(C)/C(=C/c2[nH]c(Cc3[nH]c(/C=C4\NC(=O)C(C)=C4C=C)c(C)c3CCC(=O)O)c(CCC(=O)O)c2C)NC1=O` [bilirubin], the BFree (human albumin; human, 8.3 mg/dL, pH 7.4) was 0.51 µg/dL, the “BFree_2 (free bilirubin after bilirubin enrichment)” value (“BFree_2” for short) ([1]; 25th-75th percentile, after enrichment) was 1.1 to 3.3 µg/dL and the “BFree_2” value ([1]; mean, after enrichment (mean BTotal_2 13.8 mg/dL)) was 2.51 µg/dL. For the same compound, the “BFree_2” value ([1]; median, after enrichment (median BTotal_2 13.7 mg/dL)) was 1.93 µg/dL, the “BFree_2” value ([1]; range, after enrichment (BTotal_2 6.3-23.0 mg/dL)) was 0.42 to 10.61 µg/dL and the BFree (human defatted albumin; BTotal 8.3 mg/dL (BTotal/ATotal molar ratio 0.31)) was 0.51 µg/dL. For the same compound, the BFree (human defatted albumin; BTotal 11.7 mg/dL (molar ratio 0.44)) was 0.92 µg/dL, the BFree (human defatted albumin; BTotal 18.5 mg/dL (molar ratio 0.69)) was 1.70 µg/dL and the BFree (human defatted albumin; BTotal 22.2 mg/dL (molar ratio 0.83)) was 2.39 µg/dL. The BFree (human defatted albumin; BTotal 28.3 mg/dL (molar ratio 1.06)) was 6.05 µg/dL and the BFree (human defatted albumin; BTotal 31.3 mg/dL (molar ratio 1.18)) was 9.88 µg/dL.
With `Cc1noc(NS(=O)(=O)c2ccc(N)cc2)c1C` [+ sulfa, sulfisoxazole] the KA (human albumin; 3.0 g/dL albumin, without or with sulfa) was 0.20 dL/µg and the “effect of adding sulfisoxazole on bilirubin BFree” value (human albumin; bilirubin/human albumin sample, 3.0 g/dL albumin) was “about doubles the BFree”.
